# Laboratory results published in patent US20240398814A1, “KRAS INHIBITOR AND HDAC INHIBITOR COMBINATION FOR THE TREATMENT OF CANCER” (Northwestern University, priority 2023, published 2024).
# System: KL NSCLC GEMM
# Assay: In vivo entinostat and trametinib treatment, 42 days, tumor burden
# Parameters: species or system mouse
# Conditions: endpoint after 42 days; entinostat 10 mg/kg, trametinib 1 mg/kg, oral gavage
# Method: Bioluminescent imaging was performed biweekly using an IVIS Spectrum (Caliper Life Sciences) using Living Image software (Perkin Elmer). Mice were injected intraperitoneally with 150 mg/kg D-luciferin (Caliper Life Sciences), anesthetized with isoflurane and imaged both ventrally and dorsally 10 minutes post luciferin injection. The total lung photon flux for each animal is calculated by the combination of ventral and dorsal photon flux calculated within a region of interest (ROI) encompassing the thorax.
# Mice were intratracheally intubated with Lentivirus expressing Cre recombinase to initiate tumorigenesis and imaged […] starting 4 weeks post-Cre. Treatment was initiated at day 34 post-Cre (FIG. 5). In vivo treatment doses were selected based on publications (76-79). […]
# Total lung tumor burden was quantitated from H&E sections using Inform v2.1 image analysis software (Cambridge Research and Instrumentation) in a non-biased manner. […] The quantitation data from this analysis was then used to calculate the percentage of tumor area as normalized to total lung area (tumor area+normal lung area).
# Quantitation of each individual tumor was measured from H&E sections using morphometric analysis in Panoramic viewer software (Perkin Elmer), which calculates the size of each identified tumor by area in squared microns. […]
smiles,measurement,value
Nc1ccccc1NC(=O)c1ccc(CNC(=O)OCc2cccnc2)cc1 [entinostat],tumor burden quantitated from H&E-stained sections (tumor area as percentage of total lung area),neither entinostat nor trametinib alone impacted tumor burden
